{"source": "patent US10526309B2", "about": "“Pan-TAM inhibitors and Mer/Axl dual inhibitors” (The University of North Carolina at Chapel Hill, priority 2015, dated 2020)", "assay_type_in_all_cases": "biochemical", "key": {"[1]": {"target": "T1, Tyro3 (Homo sapiens, UniProt Q06418)", "T1 sequence (Q06418 41-890)": "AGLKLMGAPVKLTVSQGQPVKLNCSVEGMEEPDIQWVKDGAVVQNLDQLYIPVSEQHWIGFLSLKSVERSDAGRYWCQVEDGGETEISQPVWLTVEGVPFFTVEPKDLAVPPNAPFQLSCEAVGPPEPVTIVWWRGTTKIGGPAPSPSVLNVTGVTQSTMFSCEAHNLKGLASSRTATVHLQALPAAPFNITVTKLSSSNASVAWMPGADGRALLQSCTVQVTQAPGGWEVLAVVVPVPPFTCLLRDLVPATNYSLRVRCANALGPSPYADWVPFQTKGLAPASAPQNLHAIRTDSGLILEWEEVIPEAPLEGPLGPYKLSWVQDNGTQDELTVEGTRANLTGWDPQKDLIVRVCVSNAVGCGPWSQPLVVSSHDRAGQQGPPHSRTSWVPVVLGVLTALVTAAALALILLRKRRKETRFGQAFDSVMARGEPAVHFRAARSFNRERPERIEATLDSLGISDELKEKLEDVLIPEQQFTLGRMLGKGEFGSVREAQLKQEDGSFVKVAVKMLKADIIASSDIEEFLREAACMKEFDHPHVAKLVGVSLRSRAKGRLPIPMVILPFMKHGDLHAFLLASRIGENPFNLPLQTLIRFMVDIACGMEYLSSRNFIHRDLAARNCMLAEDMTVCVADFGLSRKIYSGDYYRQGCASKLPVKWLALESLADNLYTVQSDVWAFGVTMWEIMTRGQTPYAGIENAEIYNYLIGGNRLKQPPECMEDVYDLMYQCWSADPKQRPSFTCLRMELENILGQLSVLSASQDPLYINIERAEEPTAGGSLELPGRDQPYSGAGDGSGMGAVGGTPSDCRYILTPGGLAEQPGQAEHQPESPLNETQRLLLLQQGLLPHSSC", "experiment": "Tyro3 kinase inhibition IC50", "conditions": "Example 6; read-out: Tyro IC50"}, "[2]": {"target": "T2, Axl (Homo sapiens, UniProt P30530)", "T2 sequence (P30530 26-894)": "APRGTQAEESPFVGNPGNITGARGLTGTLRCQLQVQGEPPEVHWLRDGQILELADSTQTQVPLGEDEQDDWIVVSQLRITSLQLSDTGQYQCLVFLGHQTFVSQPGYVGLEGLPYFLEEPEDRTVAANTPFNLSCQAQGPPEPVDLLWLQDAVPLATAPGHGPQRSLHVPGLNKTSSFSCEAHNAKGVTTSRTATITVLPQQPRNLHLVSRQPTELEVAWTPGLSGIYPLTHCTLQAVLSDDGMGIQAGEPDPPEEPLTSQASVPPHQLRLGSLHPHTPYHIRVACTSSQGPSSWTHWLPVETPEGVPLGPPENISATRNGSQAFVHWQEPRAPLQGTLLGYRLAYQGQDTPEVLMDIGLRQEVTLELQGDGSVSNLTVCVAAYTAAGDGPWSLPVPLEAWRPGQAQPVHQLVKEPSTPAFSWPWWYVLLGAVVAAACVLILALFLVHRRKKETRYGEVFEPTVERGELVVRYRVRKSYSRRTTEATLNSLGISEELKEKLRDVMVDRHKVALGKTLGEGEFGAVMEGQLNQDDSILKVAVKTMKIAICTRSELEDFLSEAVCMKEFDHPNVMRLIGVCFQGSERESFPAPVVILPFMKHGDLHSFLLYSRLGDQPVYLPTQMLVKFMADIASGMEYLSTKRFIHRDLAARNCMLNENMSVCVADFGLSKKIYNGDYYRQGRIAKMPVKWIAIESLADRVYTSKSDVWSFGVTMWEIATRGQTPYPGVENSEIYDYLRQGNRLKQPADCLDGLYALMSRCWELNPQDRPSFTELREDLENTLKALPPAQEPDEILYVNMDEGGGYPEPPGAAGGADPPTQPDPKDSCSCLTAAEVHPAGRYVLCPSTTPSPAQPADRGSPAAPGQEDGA", "experiment": "Axl kinase inhibition IC50", "conditions": "Example 6"}, "[3]": {"target": "T3, Mer (Homo sapiens, UniProt Q12866)", "T3 sequence (Q12866 21-999)": "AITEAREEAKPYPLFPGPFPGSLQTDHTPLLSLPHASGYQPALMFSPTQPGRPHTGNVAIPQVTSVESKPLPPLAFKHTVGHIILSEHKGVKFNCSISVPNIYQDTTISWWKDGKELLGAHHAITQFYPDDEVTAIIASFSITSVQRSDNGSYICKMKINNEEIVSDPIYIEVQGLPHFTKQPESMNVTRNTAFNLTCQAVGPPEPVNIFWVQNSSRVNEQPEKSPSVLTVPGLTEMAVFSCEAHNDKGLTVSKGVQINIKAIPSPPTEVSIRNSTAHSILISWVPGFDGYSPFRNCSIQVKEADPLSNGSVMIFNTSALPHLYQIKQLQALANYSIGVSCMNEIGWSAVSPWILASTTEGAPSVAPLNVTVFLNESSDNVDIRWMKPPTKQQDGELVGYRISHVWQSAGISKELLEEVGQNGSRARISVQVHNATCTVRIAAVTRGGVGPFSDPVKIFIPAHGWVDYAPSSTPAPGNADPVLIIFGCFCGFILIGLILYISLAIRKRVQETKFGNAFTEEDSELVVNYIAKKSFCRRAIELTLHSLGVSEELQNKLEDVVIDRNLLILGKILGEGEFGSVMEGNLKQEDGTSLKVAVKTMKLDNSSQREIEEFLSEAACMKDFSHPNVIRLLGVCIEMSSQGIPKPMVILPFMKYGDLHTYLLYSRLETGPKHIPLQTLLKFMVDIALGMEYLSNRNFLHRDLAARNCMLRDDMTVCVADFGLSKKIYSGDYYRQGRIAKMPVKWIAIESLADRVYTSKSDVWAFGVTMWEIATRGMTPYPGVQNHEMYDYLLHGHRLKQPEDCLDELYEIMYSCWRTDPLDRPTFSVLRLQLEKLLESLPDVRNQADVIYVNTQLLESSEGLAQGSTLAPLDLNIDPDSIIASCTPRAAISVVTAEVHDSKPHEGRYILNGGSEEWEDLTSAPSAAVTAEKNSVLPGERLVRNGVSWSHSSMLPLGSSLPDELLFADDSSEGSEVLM", "experiment": "Mer kinase inhibition IC50", "conditions": "Example 6; read-out: MerTK IC50"}, "[4]": {"target": "T4, FLT3 (Homo sapiens, UniProt P36888)", "T4 sequence (P36888 27-993)": "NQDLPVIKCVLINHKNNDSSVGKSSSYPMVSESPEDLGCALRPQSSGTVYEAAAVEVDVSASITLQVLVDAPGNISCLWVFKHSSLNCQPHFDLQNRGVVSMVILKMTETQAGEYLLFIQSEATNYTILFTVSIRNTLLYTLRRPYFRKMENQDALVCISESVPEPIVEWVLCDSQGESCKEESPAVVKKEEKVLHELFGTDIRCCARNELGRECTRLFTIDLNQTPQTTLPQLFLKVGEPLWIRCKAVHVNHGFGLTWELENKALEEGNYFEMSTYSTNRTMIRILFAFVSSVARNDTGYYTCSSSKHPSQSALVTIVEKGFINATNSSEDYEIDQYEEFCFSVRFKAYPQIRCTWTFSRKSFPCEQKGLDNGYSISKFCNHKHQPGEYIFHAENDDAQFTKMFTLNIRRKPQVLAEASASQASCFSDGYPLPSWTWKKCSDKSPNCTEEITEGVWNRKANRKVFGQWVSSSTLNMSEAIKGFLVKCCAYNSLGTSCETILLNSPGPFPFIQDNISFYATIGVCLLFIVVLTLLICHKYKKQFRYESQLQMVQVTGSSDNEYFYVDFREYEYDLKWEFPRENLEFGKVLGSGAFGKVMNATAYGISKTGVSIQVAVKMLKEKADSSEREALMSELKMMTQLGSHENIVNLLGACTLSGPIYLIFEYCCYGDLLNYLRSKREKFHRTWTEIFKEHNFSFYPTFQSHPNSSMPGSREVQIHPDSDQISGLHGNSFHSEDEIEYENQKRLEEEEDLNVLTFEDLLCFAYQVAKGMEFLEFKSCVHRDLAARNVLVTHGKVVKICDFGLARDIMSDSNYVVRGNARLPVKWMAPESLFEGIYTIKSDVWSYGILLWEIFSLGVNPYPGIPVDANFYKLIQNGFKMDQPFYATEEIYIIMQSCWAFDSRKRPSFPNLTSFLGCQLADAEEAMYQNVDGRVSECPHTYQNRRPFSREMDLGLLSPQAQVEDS", "experiment": "FLT3 kinase inhibition IC50", "conditions": "Example 6"}}, "data": [{"compound": "CCCCN(C)c1ncc2c(-c3ccc(F)cc3)nn(C[C@H]3CC[C@H](N)CC3)c2n1", "note": "[UNC1653, reference compound]", "values": [{"measurement": "IC50", "setting": "[1]", "result": 15, "unit": "µM"}, {"measurement": "IC50", "setting": "[2]", "result": 7, "unit": "µM"}, {"measurement": "IC50", "setting": "[3]", "result": 0.55, "unit": "µM"}, {"measurement": "IC50", "setting": "[4]", "result": 0.22, "unit": "µM"}]}]}
